Publication PMC6488038 (Journal of the American Chemical Society, 2018)

Tested on: HCT116 cells
Assay: Cell viability, Alamar Blue assay, HCT116
Format: cell-based, human
Details: 72 h

## N#Cc1c2c(cc3c1C(=O)N[C@@H]1C3=C[C@H](O)[C@@H](O)[C@H]1O)OCO2 [compound 46, 7cyanolycoricidine]
  activity compared to lycoricidine (3): increased activity
